In test [1] the target is PDE 7 (phosphodiesterase VII) (Homo sapiens (Human), UniProt Q13946). Kind of test: PDE 7 inhibiting effect (3H-cAMP hydrolysis, PDE 7 active fraction from MOLT-4 cells). Format: biochemical. The settings on record: PDE 7 fraction from MOLT-4 cells, 0.064 μM cAMP, 10 μM rolipram, 2 hours at 25° C., read-out: PDE7 IC50. Here is the method:
Methods for Evaluating the PDE 7 Inhibiting Effect
The PDE 7 (phosphodiesterase VII) inhibiting effect of the compounds of the present invention was performed by the following method, which was modified assay method described in Biochemical. Pharmacol. 48(6), 1219-1223 (1994). • (1) The active fraction of PDE 7 (phosphodiesterase VII) was obtained. That is, MOLT-4 (obtainable from ATCC as ATCC No. CRL-1582), which was cell line of human acute lymphoblastic lymphoma T cells, was incubated in RPMI1640 culture medium containing 10% fetal bovine serum to obtain 5×10^8 MOLT-4 cells. The cells were collected by centrifugation and suspended with 10 mL of buffer solution A [25 mM of tris-HCl, 5 mM of 2-mercaptoethanol, 2 mM of benzamidine, 2 mM of EDTA, 0.1 mM of 4-(2-aminoethyl)benzenesulfonyl hydrochloride; pH 7.5], then homogenized by Polytron® homogenizer. The homogenate were centrifuged under 25,000×G for 10 minutes at 4° C. The supernatant was separated and thus obtained supernatant was further centrifuged under 100,000×G for 60 minutes at 4° C., and then filtrated with 0.2 μm filter to obtain the soluble fraction. • (2) The obtained soluble fraction was filled in equilibrium HiTrap Q column (5 mL×2) with buffer solution A, and phosphodiesterase fractions were eluted by 300 mL of buffer solution A with linear gradient from 0 to 0.8 M NaCl concentration. 5 mL each of 60 eluents were collected, and each eluents were examined for cyclic AMP metabolic activities of phosphodiesterase. […] After the reaction, suspension of Sephadex®-QAE in 10 mM of HEPES-Na (pH 7.0) was added to the reaction mixture, and the mixture was left at rest for 5 minutes.

In test [2] the target is PDE 4 (phosphodiesterase IV). Kind of test: PDE 4 inhibiting effect (3H-cAMP hydrolysis, PDE 4 active fraction from Balb/c mouse liver). Format: biochemical. The settings on record: PDE 4 fraction from Balb/c mice liver, 0.064 μM cAMP, 2 hours at 25° C.; read-out: PDE4 IC50. On the procedure: Methods for Evaluating the PDE 4 Inhibiting Effect
The PDE 4 (phosphodiesterase IV) inhibiting effect of the compounds of the present invention was performed by the following method, which was modified assay method described in Biochemical. […] That is, the livers obtained from three Balb/c mice (male, 12 weeks: obtainable from CLEA Japan, Inc.) were suspended with 30 mL of buffer solution B [20 mM of bis-tris, 5 mM of 2-mercaptoethanol, 2 mM of benzamidine, 2 mM of EDTA, 0.1 mM of 4-(2-aminoethyl)benzenesulfonyl hydrochloride, 50 mM of sodium acetate; pH 6.5], then homogenized by Polytron® homogenizer. The homogenate were centrifuged under 25,000×G for 10 minutes at 4° C. The supernatant was separated and thus obtained supernatant was further centrifuged under 100,000×G for 60 minutes at 4° C., and then filtrated with 0.2 μm filter to obtain the soluble fraction. • (2) The obtained soluble fraction was filled in equilibrium DEAE sepharose column (1×10 cm) with buffer solution B, and phosphodiesterase fractions were eluted by 120 mL of buffer solution B with linear gradient from 0.05 to 1M sodium acetate concentration. 5 mL each of 24 eluents were collected, and each eluents were examined for cyclic AMP metabolic activities of phosphodiesterase. […] After the reaction, suspension of Sephadex®-QAE in 10 mM of HEPES-Na (pH 7.0) was added to the reaction mixture, and the mixture was left at rest for 5 minutes.

Structures can show the parent of a compound that is named as a salt. Where two headings read alike, the source gives them in different places. Some results are limits rather than exact numbers.

Sequence of PDE 7 (phosphodiesterase VII) (Q13946 whole entry): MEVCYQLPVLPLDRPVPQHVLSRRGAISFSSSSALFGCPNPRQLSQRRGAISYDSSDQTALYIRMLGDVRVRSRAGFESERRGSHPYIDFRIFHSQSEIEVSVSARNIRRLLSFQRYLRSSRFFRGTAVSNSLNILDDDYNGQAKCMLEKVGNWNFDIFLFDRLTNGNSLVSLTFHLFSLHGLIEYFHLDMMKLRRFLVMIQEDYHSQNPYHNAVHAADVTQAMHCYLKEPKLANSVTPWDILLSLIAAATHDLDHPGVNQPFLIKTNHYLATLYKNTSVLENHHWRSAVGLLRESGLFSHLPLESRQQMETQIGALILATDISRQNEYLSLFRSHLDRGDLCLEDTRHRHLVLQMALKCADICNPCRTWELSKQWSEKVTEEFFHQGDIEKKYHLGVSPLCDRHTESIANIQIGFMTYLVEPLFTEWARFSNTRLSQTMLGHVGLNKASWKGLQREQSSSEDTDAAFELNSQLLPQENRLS

One may read the IC50 as the concentration at which inhibition is half-maximal. `CNC1CCN([C@H]2CC[C@H](NC(=O)c3cc4c(C)nn(C5CCCCC5)c4s3)CC2)CC1` [Example 179, 1-Cyclohexyl-3-methyl-N-{trans-4-[4-(methylamino)-1-piperidinyl]-cyclohexyl}-1H-thieno[2,3-c]pyrazole-5-carboxamide]: the figures for the IC50 in test [1] and in test [2] were 0.0031 µM and 0.75 µM, respectively.
The like results for `CC(=O)N[C@H]1CC[C@H](NC(=O)c2cc3c(C)nn(C4CCCCC4)c3s2)CC1` [Example 80, N-[trans-4-(Acetylamino)cyclohexyl]-1-cyclohexyl-3-methyl-1H-thieno[2,3-c]pyrazole-5-carboxamide] were, in that order, 0.06 µM and 2.5 µM.
The like results for `CC(=O)Nc1ccc(NC(=O)c2cc3c(C)nn(C4CCCCCC4)c3s2)cc1` [Example 94, N-[4-(Acetylamino)phenyl]-1-cycloheptyl-3-methyl-1H-thieno[2,3-c]pyrazole-5-carboxamide] were, in that order, 0.058 µM and > 30 µM.
Consider `Cc1nn(C2CCCCCC2)c2sc(C(=O)Nc3ccc(N4CCN(C)CC4)cc3)cc12` [Example 112], for which the IC50 came to 0.008 µM in test [1] and 1.2 µM in test [2].
The like results for `Cc1nn(C2CCOCC2)c2sc(C(=O)Nc3ccc(N4CCNC(=O)C4)cc3)cc12` [Example 342, 3-Methyl-N-[4(3-oxo-1-piperazinyl)phenyl]-1-tetrahydro-2H-pyran-4-yl-1H-thieno[2,3-c]pyrazole-5-carboxamide] were, in that order, 0.028 µM and 4.6 µM.
The like results for `COC(=O)c1ccc(NC(=O)c2cc3c(C)nn(C4CCCCC4)c3s2)cn1` [Example 102, Methyl 5-{[(1-Cyclohexyl-3-methyl-1H-thieno[2,3-c]pyrazol-5-yl)-carbonyl]amino}-2-pyridinecarboxylate] were, in that order, 0.085 µM and 5.5 µM.
As for `Cc1nn(C2CCOCC2)c2sc(C(=O)N[C@H]3CC[C@H](N4CCN(S(C)(=O)=O)CC4)CC3)cc12` [Example 396, 3-Methyl-N-{trans-4-[4-(methylsulfonyl)-1-piperazinyl]cyclohexyl}-1-tetrahydro-2H-pyran-4-yl-1H-thieno[2,3-c]pyrazole-5-carboxamide], the IC50 in test [1] was found to be 0.022 µM; in test [2], 0.9 µM.
The like results for `CC(=O)c1ccc(NC(=O)c2cc3c(C)nn(C4CCCCC4)c3s2)cc1` [Example 38, N-(4-Acetylphenyl)-1-cyclohexyl-3-methyl-1H-thieno[2,3-c]pyrazole-5-carboxamide] were, in that order, 0.033 µM and 5 µM.
As for `CC(=O)N1CCN(Cc2ccc(NC(=O)c3cc4c(C)nn(C5CCCCC5)c4s3)cn2)CC1` [Example 414, N-{6-[(4-Acetyl-1-piperazinyl)methyl]-3-pyridinyl}-1-cyclohexyl-3-methyl-1H-thieno[2,3-c]pyrazole-5-carboxamide], the IC50 in test [1] was found to be 0.035 µM; in test [2], 2.8 µM.
Regarding `Cc1nn(C2CCCCC2)c2sc(C(=O)NC3CCN(C4CCOCC4)CC3)cc12` [Example 135, 1-Cyclohexyl-3-methyl-N-(1-tetrahydro-2H-pyran-4-yl-4-piperidinyl)-1H-thieno[2,3-c]pyrazole-5-carboxamide], the IC50 in test [1] came out at 0.053 µM; in test [2] it was 7.4 µM.
The like results for `Cc1nn(C2CCCCC2)c2sc(C(=O)Nc3ccc(N4CC[C@@H](O)C4)c(F)c3)cc12` [Example 263, 1-Cyclohexyl-N-{3-fluoro-4-[(3R)-3-hydroxypyrrolidinyl]phenyl}-3-methyl-1H-thieno[2,3-c]pyrazole-5-carboxamide] were, in that order, 0.054 µM and 3.5 µM.
On to `Cc1nn(C2CCOCC2)c2sc(C(=O)N[C@H]3CC[C@H](C(=O)N(C)C)CC3)cc12` [Example 349, N-{trans-4-[(Dimethylamino)carbonyl]cyclohexyl}-3-methyl-1-tetrahydro-2H-pyran-4-yl-1H-thieno[2,3-c]pyrazole-5-carboxamide], for which the IC50 was 0.078 µM in test [1] and 2.8 µM in test [2].
On to `Cc1nn(C2CCCCC2)c2sc(C(=O)Nc3ccc(CN4CCOCC4)nc3)cc12` [Example 412, 1-Cyclohexyl-3-methyl-N-[6-(4-morpholinylmethyl)-3-pyridinyl]-1H-thieno[2,3-c]pyrazole-5-carboxamide methanesulfonate], for which the 50% inhibitory concentration (IC50) in test [1] turned out to be 0.043 µM.
Still for that read-out and setting: then `Cc1nn(C2CCCCC2)c2sc(C(=O)Nc3ccc(N4CCC(O)CC4)c(F)c3)cc12` [Example 159, 1-Cyclohexyl-N-[3-fluoro-4-(4-hydroxy-1-piperidinyl)phenyl]-3-methyl-1H-thieno[2,3-c]pyrazole-5-carboxamide], with 0.035 µM; and `CNC(=O)[C@H]1CC[C@H](NC(=O)c2cc3c(C)nn(C4CCCCC4)c3s2)CC1` [Example 237, 1-Cyclohexyl-3-methyl-N-{4-[(methylamino)carbonyl]cyclohexyl}-1H-thieno[2,3-c]pyrazole-5-carboxamide], with 0.0078 µM.
For `Cc1nn(C2CCCCC2)c2sc(C(=O)Nc3ccc(S(=O)(=O)N4CCN(CCO)CC4)cc3)cc12` [Example 79, 1-Cyclohexyl-N-(4-{[4-(2-hydroethyl)-1-piperazinyl]sulfonyl}-phenyl)-3-methyl-1H-thieno[2,3-c]pyrazole-5-carboxamide], the IC50 in test [1] was determined as 0.06 µM.
Turning to `Cc1nn(C2CCCCC2)c2sc(C(=O)Nc3ccc(N4CCC(O)CC4)cc3)cc12` [Example 367, 1-Cyclohexyl-N-[4-(4-hydroxy-1-piperidinyl)phenyl]-3-methyl-1H-thieno[2,3-c]pyrazole-5-carboxamide methanesulfonate], the IC50 in test [1] (methanesulfonate) stood at 0.02 µM.
As to `Cc1nn(C2CCCCC2)c2sc(C(=O)NC3CCN(S(=O)(=O)N(C)C)CC3)cc12` [Example 240, 1-Cyclohexyl-N-{1-[(dimethylamino)sulfonyl]-4-piperidinyl}-3-methyl-1H-thieno[2,3-c]pyrazole-5-carboxamide], the IC50 in test [1] turned out to be 0.041 µM.
For the compound `Cc1nn(C2CCCCC2)c2sc(C(=O)N[C@H]3CCN(C(=O)N(C)C)C3)cc12` [Example 246, 1-Cyclohexyl-N-{(3S)-1-[(dimethylamino)carbonyl]pyrrolidinyl}-3-methyl-1H-thieno[2,3-c]pyrazole-5-carboxamide HCl salt], in test [1], the IC50 is 0.051 µM.
`Cc1nn(C2CCCCC2)c2sc(C(=O)Nc3ccc(N4CCC(O)CC4)c(F)c3)cc12` [Example 365, 1-cyclohexyl-N-[3-fluoro-4-(4-hydroxy-1-piperidinyl)phenyl]-3-methyl-1H-thieno[2,3-c]pyrazole-5-carboxamide dimethanesulfonate]: in test [1] (dimethanesulfonate), the IC50 worked out at 0.041 µM.
Regarding `Cc1nn(C2CCCCC2)c2sc(C(=O)Nc3ccc(N4CCC(O)CC4)cc3)cc12` [Example 368, 1-Cyclohexyl-N-[4-(4-hydroxy-1-piperidinyl)phenyl]-3-methyl-1H-thieno[2,3-c]pyrazole-5-carboxamide p-toluenesulfonate], the IC50 in test [1] (p-toluenesulfonate) is 0.026 µM.
As for `Cc1nn(C2CCCCC2)c2sc(C(=O)Nc3ccc(N4CCC(O)CC4)cc3)cc12` [Example 114], the IC50 in test [1] came out at 0.021 µM.
Consider `Cc1nn(C2CCCCC2)c2sc(C(=O)N[C@@H]3CCN(C(=O)N(C)C)C3)cc12` [Example 323, 1-Cyclohexyl-N-{(3R)-1-[(dimethylamino)carbonyl]pyrrolidinyl}-3-methyl-1H-thieno[2,3-c]pyrazole-5-carboxamide HCl salt], for which the IC50 in test [1] was 0.071 µM.
Consider `Cc1nn(C2CCCCC2)c2sc(C(=O)Nc3ccc(N4CCC(O)CC4)c(F)c3)cc12` [Example 366, 1-Cyclohexyl-N-[3-fluoro-4-(4-hydroxy-1-piperidinyl)phenyl]-3-methyl-1H-thieno[2,3-c]pyrazole-5-carboxamide p-toluenesulfonate], for which the concentration for half-maximal inhibition (IC50) in test [1] (p-toluenesulfonate) is 0.049 µM.

These data come from US8901315B2, “Thienopyrazole derivative having PDE7 inhibitory activity” (Daiichi Sankyo Company, Limited, priority 2004, dated 2014).
